How the values were obtained:
rat P450 2B1 = molecular target: T1, rat P450 2B1 (Rattus norvegicus, UniProt P00176); experiment: biochemical; type: biochemical; details: for inhibition potency for P450 2B1 (in words): rat P450 2B1, PROD activity
T1 sequence (P00176 1-491): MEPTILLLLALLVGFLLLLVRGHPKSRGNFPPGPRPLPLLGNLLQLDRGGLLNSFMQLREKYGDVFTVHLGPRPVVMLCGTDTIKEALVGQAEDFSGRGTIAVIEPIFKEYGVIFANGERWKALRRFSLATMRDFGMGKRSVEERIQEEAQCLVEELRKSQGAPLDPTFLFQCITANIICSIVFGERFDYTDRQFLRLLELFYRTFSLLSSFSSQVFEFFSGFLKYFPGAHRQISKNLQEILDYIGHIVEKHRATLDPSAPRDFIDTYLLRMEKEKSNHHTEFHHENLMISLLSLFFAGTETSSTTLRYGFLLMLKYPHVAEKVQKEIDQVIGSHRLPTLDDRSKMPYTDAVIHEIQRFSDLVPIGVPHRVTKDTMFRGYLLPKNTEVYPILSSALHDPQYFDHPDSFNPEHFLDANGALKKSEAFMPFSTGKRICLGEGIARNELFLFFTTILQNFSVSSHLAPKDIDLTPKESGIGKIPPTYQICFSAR

human P450 1A1 = molecular target: T2, human P450 1A1 (Homo sapiens, UniProt P04798); experiment: biochemical
T2 sequence (P04798 1-512): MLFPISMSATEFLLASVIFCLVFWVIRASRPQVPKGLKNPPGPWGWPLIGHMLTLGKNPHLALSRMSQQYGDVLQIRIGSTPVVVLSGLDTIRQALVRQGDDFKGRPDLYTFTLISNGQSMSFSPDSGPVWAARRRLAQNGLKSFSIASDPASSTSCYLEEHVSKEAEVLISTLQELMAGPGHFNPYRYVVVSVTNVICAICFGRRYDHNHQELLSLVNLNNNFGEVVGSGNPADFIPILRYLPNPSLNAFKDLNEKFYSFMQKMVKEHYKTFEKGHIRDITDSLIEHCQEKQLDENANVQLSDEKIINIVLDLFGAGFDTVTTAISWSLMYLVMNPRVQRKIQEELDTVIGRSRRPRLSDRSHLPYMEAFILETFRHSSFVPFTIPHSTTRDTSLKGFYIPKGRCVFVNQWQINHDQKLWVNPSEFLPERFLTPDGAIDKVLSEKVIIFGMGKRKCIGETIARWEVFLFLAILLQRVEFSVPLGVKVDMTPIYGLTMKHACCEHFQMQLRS

human P450 1A2 = molecular target: T3, human P450 1A2 (Homo sapiens, UniProt P05177); experiment: 7-methoxyresorufin O-demethylation; type: biochemical
T3 sequence (P05177 1-516): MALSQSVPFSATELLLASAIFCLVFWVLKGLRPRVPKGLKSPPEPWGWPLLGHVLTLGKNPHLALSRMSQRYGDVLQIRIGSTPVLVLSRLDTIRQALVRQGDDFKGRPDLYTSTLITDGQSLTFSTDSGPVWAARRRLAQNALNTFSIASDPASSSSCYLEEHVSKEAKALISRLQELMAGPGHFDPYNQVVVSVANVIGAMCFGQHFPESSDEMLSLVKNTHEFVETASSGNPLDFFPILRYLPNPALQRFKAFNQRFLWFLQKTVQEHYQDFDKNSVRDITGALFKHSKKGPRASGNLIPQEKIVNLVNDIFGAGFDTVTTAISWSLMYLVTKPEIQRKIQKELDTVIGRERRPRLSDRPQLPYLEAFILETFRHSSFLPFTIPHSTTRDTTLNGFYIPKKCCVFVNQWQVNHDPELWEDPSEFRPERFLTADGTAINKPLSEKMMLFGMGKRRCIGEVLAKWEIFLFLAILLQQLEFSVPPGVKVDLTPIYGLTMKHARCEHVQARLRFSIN

Row | Compound | IC50 (rat P450 2B1) [µM] | inhibition potency for P450 2B1 (in words) (rat P450 2B1) | IC50 (human P450 1A1) [µM] | IC50 (human P450 1A2) [µM]
1 | C#CCOc1cccc2[nH]c3ccccc3c12 [IV, 4-(prop-2-yn-1-yloxy)-9H-carbazole] | 1.78 | good inhibition potency | 6.64 | 
2 | Oc1ccc2c(c1)[nH]c1ccccc12 [2-hydroxycarbazole, 2-Hydroxycarbazole, reference compound] | 41.6 |  | 70.5 | 59.7
3 | CCCOc1ccc2c(c1)[nH]c1ccccc12 [VII, 2-propoxy-9H-carbazole] | 10.6 |  | 26.4 | 
4 | COc1ccc2c(c1)[nH]c1ccccc12 [V, 2-methoxy-9H-carbazole] | 13.3 |  | 35 | 
5 | Oc1cccc2[nH]c3ccccc3c12 [4-hydroxycarbazole, 4-Hydroxycarbazole, reference compound] | > 100 |  | 36.8 | 7.33
6 | CCOc1ccc2c(c1)[nH]c1ccccc12 [VI, 2-ethoxy-9H-carbazole] | 8.43 |  | 15.6 | 
7 | C#CCOc1ccc2c(c1)[nH]c1ccccc12 [VIII, 2-(prop-2-yn-1-yloxy)-9H-carbazole] | 5.26 |  | 8.65 | 

Further lines, results first:

Row | IC50 (rat P450 2B1) [µM] | inhibition potency for P450 2B1 (in words) (rat P450 2B1) | IC50 (human P450 1A1) [µM] | IC50 (human P450 1A2) [µM] | Compound
8 | 1.83 | good inhibition potency | 21.5 |  | COc1cccc2[nH]c3ccccc3c12 [I, 4-methoxy-9H-carbazole]
9 | 1.14 | good inhibition potency | 10.3 |  | CCOc1cccc2[nH]c3ccccc3c12 [II, 4-ethoxy-9H-carbazole]
10 | 0.659 | good inhibition potency | 8.73 |  | CCCOc1cccc2[nH]c3ccccc3c12 [III, 4-propoxy-9H-carbazole]
